The target of the assay is T1, ISG20L2 (interferon-stimulated 20 kDa exonuclease-like 2) (Homo sapiens, UniProt Q9H9L3).
T1 construct: recombinant human ISG20L2 (rISG)
T1 sequence (Q9H9L3 1-353): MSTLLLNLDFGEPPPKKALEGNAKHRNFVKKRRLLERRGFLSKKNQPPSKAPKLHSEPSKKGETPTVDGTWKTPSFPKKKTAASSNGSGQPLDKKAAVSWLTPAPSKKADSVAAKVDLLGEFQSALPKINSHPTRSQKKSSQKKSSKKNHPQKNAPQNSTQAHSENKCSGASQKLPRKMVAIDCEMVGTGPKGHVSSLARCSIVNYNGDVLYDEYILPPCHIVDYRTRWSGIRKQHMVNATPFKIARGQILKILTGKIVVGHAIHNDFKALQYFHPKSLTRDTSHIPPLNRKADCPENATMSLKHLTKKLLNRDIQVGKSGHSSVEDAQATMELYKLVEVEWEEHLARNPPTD
The assay is described as follows: SPR (Biacore X100, ISG20L2 immobilized on CM5 chip). The class given is binding.

As for `CC(C)C[C@H](NC(=O)[C@H](Cc1ccccc1)NC(=O)c1cnccn1)B(O)O` [BTZ, bortezomib], the Kd came to 26.7 µM.
With `CC(C)C[C@H](NC(=O)[C@H](CCc1ccccc1)NC(=O)CN1CCOCC1)C(=O)N[C@@H](Cc1ccccc1)C(=O)N[C@@H](CC(C)C)C(=O)[C@@]1(C)CO1` [CFZ, carfilzomib], the affinity, expressed as Kd, was 8.71 µM.

(Values after article PMC9675441 (JCI Insight, 2022).)
